{
  "source": "patent US20260266828A1",
  "about": "“BIOMARKERS FOR PREDICTING CANCER TREATMENT EFFICACY” (Arcus Biosciences, Inc., priority 2023, published 2026)",
  "molecules": {"B1": {"name": "domvanalimab (antibody, chains of the INN, looked up, V domains shown)", "VH": "EVQLVESGGGLVQPGGSLRLSCAASGFTFSNFGMHWVRQAPGKGLEWVAFISSGSSSIYYADTVKGRFTISRDNAKNSLYLQMNSLRAEDTAVYYCARMRLDYYAMDYWGQGTMVTVSS", "VL": "DIQMTQSPSSLSASVGDRVTITCRASKSISKYLAWYQQKPGKAPKLLIYSGSTLQSGVPSRFSGSGSGTDFTLTISSLQPEDFATYYCQQHNEYPWTFGGGTKVEIK", "notes": "Fc-silent anti-TIGIT antibody with engineered IgG1 Fc"}},
  "key": {"MC38 tumors": {"system": "MC38 tumors", "assay": "Flow cytometry phenotyping of MC38 tumors and tdLN after treatment", "type": "in vivo, mouse", "settings": "three days after the first OXA exposure", "protocol": "Methods—Mouse tumor-infiltrating lymphocyte and lymph node phenotyping. MC38 tumors were minced with scissors and dissociated with tumor digestion buffer [RPMI 1640 supplemented with 20% FBS, 0.25 mg/mL Collagenase D (Roche), and 100 KUnits/mL Type IV DNase I (Sigma-Aldrich)]. Single-cell tumor suspensions were passed through a 70 μm cell strainer and washed. Inguinal lymph nodes were collected from the same side as the tumor (tumor-draining lymph node, tdLN), minced, passed through a 70 μm cell strainer and washed. A total of 1×10^6 tumor or lymph node cells per well were incubated at room temperature (RT) with live-dead NIR (Invitrogen) and anti-mouse CD16/CD32 Fc block (BD Biosciences). For p15E tetramer staining, cells were washed and incubated with tetramer at RT. Cells were stained for surface and intracellular markers and analyzed by flow cytometry as indicated above.\nIn vivo experiments were performed at Arcus Biosciences in accordance with federal, state, and institutional guidelines and were approved by Arcus Biosciences' Institutional Animal Care and Use Committee. Female 6-8 week old C57BL/6J mice were purchased from Charles River Laboratories. Mice were injected subcutaneously on the right flank with 1×10^6 MC38 cells in 100 μL PBS. Once tumors were established (sized indicated in figure legends), mice were randomized into groups based on tumor size distribution. […] The dosing regimens for anti-PD-1 and anti-TIGIT were determined via receptor occupancy (RO) assays using commercially available a competitive anti-TIGIT antibody (clone GIGD7), a non-competitive PD-1 antibody (clone J43) as well as direct detection of both anti-TIGIT and anti-PD-1 via secondary antibody (Jackson Immunoresearch anti-mouse IgG, Fcγ subclass 2a specific). The dosing regimen for FTY720 was determined in naïve C57BL/6 females by examining lymphocyte frequencies and numbers in the blood 24 h after dosing. Tumor volume was monitored with digital calipers and volume was calculated using the formula: (Length×Width^2)/2. […]"}, "MC38 cells [1]": {"system": "MC38 cells", "assay": "In vitro oxaliplatin treatment of MC38 cells, flow cytometry of PD-L1 and CD155", "type": "cell-based, mouse", "settings": "dying cells, ≥1 μM, 22 h", "description": "(§1) Lines and error represent the mean±standard deviation (SD) of biological triplicates. […] In FIG. 5B and FIG. 5C, lines and error represent the mean±SD of biological duplicates.\n(§2) For flow cytometry, MC38 cells were plated in supplemented RPMI medium at 1×10^5 cells/well in a 12-well tissue culture plate. For CellTiter-Glo (Promega) analysis, cells were plated in supplemented RPMI medium at 5×10^3 cells/well in a 96-well white flat-bottom tissue culture plate. […] Data were normalized to PBS treated cells. For flow cytometry, cells were harvested using a cell scraper, and transferred into a 96-well round-bottom plate for staining. Cells were washed, incubated with live-dead aqua and anti-mouse CD16/CD32 Fc block at RT followed by cell surface staining with anti-mouse PD-L1 BV711 (clone MIH4, BD Biosciences) and anti-mouse CD155 BUV395 (clone 3F1, BD Biosciences) at 4° C. Cells were washed, fixed with IC fixation buffer (Invitrogen) at RT, washed again, and resuspended in PBS for flow cytometry."}, "MC38 cells [2]": {"system": "MC38 cells", "settings": "1 μM, 72 hours", "description": "as §1, §2"}, "[3]": {"system": "first line (1L) metastatic NSCLC", "assay": "Real-world progression free survival analysis by CD155 gene expression, de-identified health records", "type": "in vivo, human", "excerpt": "This example retrospectively evaluated the predictive value of CD155 expression for a clinical outcome using real-world data. […] Real-world progression free survival (rwPFS) is defined in this study as the time from treatment initiation until the first occurrence of progressive disease (PD) or death up to the end date of the same line of therapy. […] Otherwise, patients were censored at the last known follow up time. rwPFS is right censored at 36 months. The analysis was performed using de-identified health records of first line (1L) metastatic NSCLC patients treated with chemotherapy only, treated with pembrolizumab monotherapy, or treated with chemotherapy and pembrolizumab. A filter was applied to select for records where biopsies were obtained ≤12 months prior to the first dose of treatment. Records were excluded if the patient had EGF or ALK alterations.\nThe health records for each patient included information such as sex, race, smoking status, biopsy site, stage at time of diagnosis, subtype of lung cancer (adenocarcinoma or squamous cell carcinoma), tumor purity, PD-L1 expression, treatment (chemotherapy, pembrolizumab, or chemotherapy+pembrolizumab), clinical outcome, etc., as well as gene expression data for a number of targets (e.g., TIGIT, CD155, CD73). Chemotherapy for adenocarcinomas was cisplatin or carboplatin+pemetrexed. Chemotherapy for squamous cell carcinomas was either carboplatin and paclitaxel or nab-paclitaxel. Gene expression was quantified from RNA-seq data as transcript per million (tpm). Kaplan-Meier models were performed by gene and according to the following breakdowns: NSCLC subtype (all; adenocarcinoma only; squamous cell carcinoma only), PD-L1 expression (all; <1% TPS; 1-49% TPS; ≥50% TPS), and treatment (chemotherapy only, pembrolizumab only, chemotherapy and pembrolizumab). Results presented as Kaplan-Meier (KM) plots splitting high and low gene expressors into different groups, whereby high gene expression was defined as expression equal to or greater than a cut-off value determined by one of several threshold methodologies (e.g., median, 1st tertile (1st third vs last two thirds), 2nd tertile (two thirds vs. last third) and MaxStat (an outcome-oriented method providing a value of a cutpoint that corresponds to the most significant relation with outcome). Cox Proportional-Hazards tests were used to assess the effect of gene expression as a continuous variable, and hazard ratios were provided with each KM plot using the low gene expressor group as a reference."}, "[4]": {"target": "T1, FcγR-IIIA (V158 high-affinity variant) (Homo sapiens, UniProt P08637, F176V)", "T1 construct": "expressed in transfected cells", "T1 sequence (P08637 17-254 F176V)": "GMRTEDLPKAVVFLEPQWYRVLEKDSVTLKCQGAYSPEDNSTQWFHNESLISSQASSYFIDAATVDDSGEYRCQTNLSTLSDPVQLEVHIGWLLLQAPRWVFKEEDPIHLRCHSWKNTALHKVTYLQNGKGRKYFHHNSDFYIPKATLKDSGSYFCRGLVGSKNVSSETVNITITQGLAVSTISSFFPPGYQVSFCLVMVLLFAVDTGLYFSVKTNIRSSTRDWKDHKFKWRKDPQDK", "design": "dose or concentration left out as unconfirmed", "settings": "cited from earlier work"}, "[5]": {"system": "FcγR isotypes I, IIA, JIB, IIIA, and IIIB", "design": "dose or concentration left out as unconfirmed", "settings": "compared with wild-type IgG1 control antibody; cited from earlier work"}, "[6]": {"system": "Jurkat cell line stably overexpressing human TIGIT", "settings": "increasing concentrations up to 33 nM; cited from earlier work"}},
  "data": [
    {"molecule": "O=C1[O][Pt]2([NH][C@@H]3CCCC[C@H]3[NH]2)[O]C1=O", "note": "[OXA, oxaliplatin]", "values": [
      {"measurement": "TCF-1 positivity in tumoral CD8+ T cells", "setting": "MC38 tumors", "value": "increase"},
      {"measurement": "intratumoral monocytes", "setting": "MC38 tumors", "value": "decreases"},
      {"measurement": "tumor neutrophils", "setting": "MC38 tumors", "value": "increase"},
      {"measurement": "expression of PD-L1 and CD155 ligands", "setting": "MC38 cells [1]", "value": "increased expression"},
      {"measurement": "cancer cell death", "setting": "MC38 cells [2]", "value": "~100", "unit": "%"}
    ]},
    {"molecule": "pembrolizumab", "values": [
      {"measurement": "Median real-world progression-free survival (rwPFS)", "setting": "[3]; CD155 High, threshold method Median, PD-L1 TPS 1-49%", "value": 5.4, "unit": "mo"},
      {"measurement": "Median real-world progression-free survival (rwPFS)", "setting": "[3]; CD155 High, threshold method Median, PD-L1 TPS <1%", "value": 13.8, "unit": "mo"},
      {"measurement": "Median real-world progression-free survival (rwPFS)", "setting": "[3]; CD155 High, threshold method Median, PD-L1 TPS All", "value": 7.67, "unit": "mo"},
      {"measurement": "Median real-world progression-free survival (rwPFS)", "setting": "[3]; CD155 High, threshold method Median, PD-L1 TPS ≥50%", "value": 8.53, "unit": "mo"},
      {"measurement": "Median real-world progression-free survival (rwPFS)", "setting": "[3]; CD155 High, threshold method q33, PD-L1 TPS 1-49%", "value": 4.63, "unit": "mo"},
      {"measurement": "Median real-world progression-free survival (rwPFS)", "setting": "[3]; CD155 High, threshold method q33, PD-L1 TPS <1%", "value": 8.1, "unit": "mo"},
      {"measurement": "Median real-world progression-free survival (rwPFS)", "setting": "[3]; CD155 High, threshold method q33, PD-L1 TPS All", "value": 8.07, "unit": "mo"},
      {"measurement": "Median real-world progression-free survival (rwPFS)", "setting": "[3]; CD155 High, threshold method q33, PD-L1 TPS ≥50%", "value": 8.63, "unit": "mo"},
      {"measurement": "Median real-world progression-free survival (rwPFS)", "setting": "[3]; CD155 High, threshold method q67, PD-L1 TPS 1-49%", "value": 3.93, "unit": "mo"},
      {"measurement": "Median real-world progression-free survival (rwPFS)", "setting": "[3]; CD155 High, threshold method q67, PD-L1 TPS <1%", "value": 13.8, "unit": "mo"},
      {"measurement": "Median real-world progression-free survival (rwPFS)", "setting": "[3]; CD155 High, threshold method q67, PD-L1 TPS All", "value": 7.03, "unit": "mo"},
      {"measurement": "Median real-world progression-free survival (rwPFS)", "setting": "[3]; CD155 High, threshold method q67, PD-L1 TPS ≥50%", "value": 7.23, "unit": "mo"},
      {"measurement": "Median real-world progression-free survival (rwPFS)", "setting": "[3]; CD155 Low, threshold method Median, PD-L1 TPS 1-49%", "value": 6.2, "unit": "mo"},
      {"measurement": "Median real-world progression-free survival (rwPFS)", "setting": "[3]; CD155 Low, threshold method Median, PD-L1 TPS <1%", "value": 8.1, "unit": "mo"},
      {"measurement": "Median real-world progression-free survival (rwPFS)", "setting": "[3]; CD155 Low, threshold method Median, PD-L1 TPS All", "value": 10.3, "unit": "mo"},
      {"measurement": "Median real-world progression-free survival (rwPFS)", "setting": "[3]; CD155 Low, threshold method Median, PD-L1 TPS ≥50%", "value": 14.1, "unit": "mo"},
      {"measurement": "Median real-world progression-free survival (rwPFS)", "setting": "[3]; CD155 Low, threshold method q33, PD-L1 TPS 1-49%", "value": 9.67, "unit": "mo"},
      {"measurement": "Median real-world progression-free survival (rwPFS)", "setting": "[3]; CD155 Low, threshold method q33, PD-L1 TPS <1%", "value": 8.1, "unit": "mo"},
      {"measurement": "Median real-world progression-free survival (rwPFS)", "setting": "[3]; CD155 Low, threshold method q33, PD-L1 TPS All", "value": 13.3, "unit": "mo"},
      {"measurement": "Median real-world progression-free survival (rwPFS)", "setting": "[3]; CD155 Low, threshold method q33, PD-L1 TPS ≥50%", "value": 17.1, "unit": "mo"},
      {"measurement": "Median real-world progression-free survival (rwPFS)", "setting": "[3]; CD155 Low, threshold method q67, PD-L1 TPS 1-49%", "value": 7.1, "unit": "mo"},
      {"measurement": "Median real-world progression-free survival (rwPFS)", "setting": "[3]; CD155 Low, threshold method q67, PD-L1 TPS <1%", "value": 8.1, "unit": "mo"},
      {"measurement": "Median real-world progression-free survival (rwPFS)", "setting": "[3]; CD155 Low, threshold method q67, PD-L1 TPS All", "value": 9.67, "unit": "mo"},
      {"measurement": "Median real-world progression-free survival (rwPFS)", "setting": "[3]; CD155 Low, threshold method q67, PD-L1 TPS ≥50%", "value": 11.7, "unit": "mo"}
    ]},
    {"molecule": "B1", "values": [
      {"measurement": "activity in FcγR-IIIA effector reporter bioassay", "setting": "[4]", "value": "inactive"},
      {"measurement": "binding to FcγR isotypes", "setting": "[5]", "value": "no significant binding"},
      {"measurement": "complement dependent cytotoxicity", "setting": "[6]", "value": "No cytotoxicity"}
    ]}
  ]
}
